Laboratory results published in paper PMC4822313, “Modulating the import of medium-chain alkanes in E. coli through tuned expression of FadL” (Journal of Biological Engineering, 2016).

Target: T1, AlkBGT alkane monooxygenase complex (Ectopseudomonas oleovorans, UniProt P12691)
T1 construct: gene alkB; inner membrane AlkB with rubredoxin AlkG and reductase AlkT; expressed in E. coli from pGEc41; with Rubredoxin-2; Rubredoxin-NAD(+) reductase
T1 sequence (P12691 1-401): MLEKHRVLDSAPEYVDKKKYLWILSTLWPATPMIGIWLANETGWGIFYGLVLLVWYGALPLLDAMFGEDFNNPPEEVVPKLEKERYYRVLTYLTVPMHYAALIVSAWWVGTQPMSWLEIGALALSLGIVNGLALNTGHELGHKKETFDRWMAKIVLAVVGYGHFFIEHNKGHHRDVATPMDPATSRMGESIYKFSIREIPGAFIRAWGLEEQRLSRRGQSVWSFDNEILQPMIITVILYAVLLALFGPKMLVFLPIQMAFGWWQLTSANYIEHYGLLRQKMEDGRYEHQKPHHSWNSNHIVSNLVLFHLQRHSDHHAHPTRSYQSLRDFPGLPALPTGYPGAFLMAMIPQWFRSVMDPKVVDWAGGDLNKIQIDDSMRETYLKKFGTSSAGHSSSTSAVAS
Assay: whole-cell oxidation, GC-FID of products
Assay type: cell-based
Conditions: 30 % (v/v) octane, 37 °C, E. coli with pGEc41

## CCCCCCCCO [1-octanol]
  whole-cell oxidation, GC-FID of products: The synthesis of 1-octanol and 1-octanal is attributed to AlkB
